System: patients after acute myocardial infarction
Test: TCM symptom score, total and single (chest pain, chest tightness, short breath, fatigue, palpitation, spontaneous perspiration, pale complexion), same clinical trial
Type: in vivo, human
Settings: for chest pain score 0, number of patients / chest pain score 0, percent of patients / chest pain score 3, number of patients / chest pain score 3, percent of patients / chest pain score 6, number of patients / chest pain score 6, percent of patients / chest pain score 9, number of patients / chest pain score 9, percent of patients / chest tightness score 0, number of patients / chest tightness score 0, percent of patients / chest tightness score 3, number of patients / chest tightness score 3, percent of patients / chest tightness score 6, number of patients / chest tightness score 6, percent of patients / chest tightness score 9, number of patients / chest tightness score 9, percent of patients: 1 month after treatment
From the text: 3508 patients who were in accordance with the diagnostic standards of AMI for 28 days to 2 years and differentiated as Qi deficiency and blood stagnation syndrome by TCM were studied. 0.5 g Chinese medicine composition prepared by the method of EXAMPLE 1 (Coded as QSYQ) was administrated half an hour after meal, 3 times per day.
They included the overall survival time, angina pectoris score, TCM symptom score and life quality score, where angina pectoris score, TCM symptom score and life quality score were evaluated at randomization, in 1st, 3rd, 6th, 9th, 12th month after treatment and 18th month after follow-up.
The analysis method referred to the angina pectoris score.

[1] = 1 month after treatment-baseline, FAS
[2] = 1 month after treatment-baseline, PP
[3] = 3 months after treatment-baseline, FAS
[4] = 3 months after treatment-baseline, PP

CC(=O)Oc1ccccc1C(=O)O [Control group, aspirine]
change of chest pain score 0, number of patients [1]: 1344 | change of chest pain score 0, percent of patients [1]: (78.64%) | change of chest pain score 3, number of patients [1]: 226 | change of chest pain score 3, percent of patients [1]: (13.22%) | change of chest pain score 6, number of patients [1]: 60 | change of chest pain score 6, percent of patients [1]: (3.51%) | change of chest pain score 9, number of patients [1]: 4 | change of chest pain score 9, percent of patients [1]: (0.23%) | change of chest pain score −3, number of patients [1]: 59 | change of chest pain score −3, percent of patients [1]: (3.45%) | change of chest pain score −6, number of patients [1]: 16 | change of chest pain score −6, percent of patients [1]: (0.94%) | change of chest pain score −9, number of patients [1]: 0 | change of chest pain score −9, percent of patients [1]: (0.00%) | change of chest tightness score 0, number of patients [1]: 1302 | change of chest tightness score 0, percent of patients [1]: (76.18%) | change of chest tightness score 3, number of patients [1]: 298 | change of chest tightness score 3, percent of patients [1]: (17.44%) | change of chest tightness score 6, number of patients [1]: 21 | change of chest tightness score 6, percent of patients [1]: (1.23%) | change of chest tightness score 9, number of patients [1]: 5 | change of chest tightness score 9, percent of patients [1]: (0.29%) | change of chest tightness score −3, number of patients [1]: 76 | change of chest tightness score −3, percent of patients [1]: (4.45%) | change of chest tightness score −6, number of patients [1]: 7 | change of chest tightness score −6, percent of patients [1]: (0.41%) | change of chest pain score 0, number of patients [2]: 1146 | change of chest pain score 0, percent of patients [2]: (78.49%) | change of chest pain score 3, number of patients [2]: 197 | change of chest pain score 3, percent of patients [2]: (13.49%) | change of chest pain score 6, number of patients [2]: 52 | change of chest pain score 6, percent of patients [2]: (3.56%) | change of chest pain score 9, number of patients [2]: 3 | change of chest pain score 9, percent of patients [2]: (0.21%) | change of chest pain score −3, number of patients [2]: 50 | change of chest pain score −3, percent of patients [2]: (3.42%) | change of chest pain score −6, number of patients [2]: 12 | change of chest pain score −6, percent of patients [2]: (0.82%) | change of chest pain score −9, number of patients [2]: 0 | change of chest pain score −9, percent of patients [2]: (0.00%) | change of chest tightness score 0, number of patients [2]: 1110 | change of chest tightness score 0, percent of patients [2]: (76.03%) | change of chest tightness score 3, number of patients [2]: 259 | change of chest tightness score 3, percent of patients [2]: (17.74%) | change of chest tightness score 6, number of patients [2]: 19 | change of chest tightness score 6, percent of patients [2]: (1.30%) | change of chest tightness score 9, number of patients [2]: 4 | change of chest tightness score 9, percent of patients [2]: (0.27%) | change of chest tightness score −3, number of patients [2]: 62 | change of chest tightness score −3, percent of patients [2]: (4.25%) | change of chest tightness score −6, number of patients [2]: 6 | change of chest tightness score −6, percent of patients [2]: (0.41%) | chest pain score 0, number of patients (FAS): 608 | chest pain score 0, percent of patients (FAS): (35.41%) | chest pain score 3, number of patients (FAS): 635 | chest pain score 3, percent of patients (FAS): (36.98%) | chest pain score 6, number of patients (FAS): 461 | chest pain score 6, percent of patients (FAS): (26.85%) | chest pain score 9, number of patients (FAS): 13 | chest pain score 9, percent of patients (FAS): (0.76%) | chest tightness score 0, number of patients (FAS): 608 | chest tightness score 0, percent of patients (FAS): (35.41%) | chest tightness score 3, number of patients (FAS): 635 | chest tightness score 3, percent of patients (FAS): (36.98%) | chest tightness score 6, number of patients (FAS): 461 | chest tightness score 6, percent of patients (FAS): (26.85%) | chest tightness score 9, number of patients (FAS): 13 | chest tightness score 9, percent of patients (FAS): (0.76%) | chest pain score 0, number of patients (PP): 515 | chest pain score 0, percent of patients (PP): (35.13%) | chest pain score 3, number of patients (PP): 537 | chest pain score 3, percent of patients (PP): (36.63%) | chest pain score 6, number of patients (PP): 406 | chest pain score 6, percent of patients (PP): (27.69%) | chest pain score 9, number of patients (PP): 8 | chest pain score 9, percent of patients (PP): (0.55%) | chest tightness score 0, number of patients (PP): 515 | chest tightness score 0, percent of patients (PP): (35.13%) | chest tightness score 3, number of patients (PP): 537 | chest tightness score 3, percent of patients (PP): (36.63%) | chest tightness score 6, number of patients (PP): 406 | chest tightness score 6, percent of patients (PP): (27.69%) | chest tightness score 9, number of patients (PP): 8 | chest tightness score 9, percent of patients (PP): (0.55%) | change of chest pain score 0, number of patients [3]: 1203 | change of chest pain score 0, percent of patients [3]: (70.39%) | change of chest pain score 3, number of patients [3]: 325 | change of chest pain score 3, percent of patients [3]: (19.02%) | change of chest pain score 6, number of patients [3]: 76 | change of chest pain score 6, percent of patients [3]: (4.45%) | change of chest pain score 9, number of patients [3]: 6 | change of chest pain score 9, percent of patients [3]: (0.35%) | change of chest pain score −3, number of patients [3]: 79 | change of chest pain score −3, percent of patients [3]: (4.62%) | change of chest pain score −6, number of patients [3]: 20 | change of chest pain score −6, percent of patients [3]: (1.17%) | change of chest pain score −9, number of patients [3]: 0 | change of chest pain score −9, percent of patients [3]: (0.00%) | change of chest tightness score 0, number of patients [3]: 1190 | change of chest tightness score 0, percent of patients [3]: (69.63%) | change of chest tightness score 3, number of patients [3]: 383 | change of chest tightness score 3, percent of patients [3]: (22.41%) | change of chest tightness score 6, number of patients [3]: 37 | change of chest tightness score 6, percent of patients [3]: (2.17%) | change of chest tightness score 9, number of patients [3]: 5 | change of chest tightness score 9, percent of patients [3]: (0.29%) | change of chest tightness score −3, number of patients [3]: 85 | change of chest tightness score −3, percent of patients [3]: (4.97%) | change of chest tightness score −6, number of patients [3]: 8 | change of chest tightness score −6, percent of patients [3]: (0.47%) | change of chest tightness score −9, number of patients [3]: 1 | change of chest tightness score −9, percent of patients [3]: (0.06%) | change of chest pain score 0, number of patients [4]: 1019 | change of chest pain score 0, percent of patients [4]: (70.62%) | change of chest pain score 3, number of patients [4]: 279 | change of chest pain score 3, percent of patients [4]: (19.33%) | change of chest pain score 6, number of patients [4]: 63 | change of chest pain score 6, percent of patients [4]: (4.37%) | change of chest pain score 9, number of patients [4]: 4 | change of chest pain score 9, percent of patients [4]: (0.28%) | change of chest pain score −3, number of patients [4]: 64 | change of chest pain score −3, percent of patients [4]: (4.44%) | change of chest pain score −6, number of patients [4]: 14
